Laboratory results taken from patent publication US11040981B2, “Pyrrolotriazine compounds and methods of inhibiting TAM kinases” (Syros Pharmaceuticals, Inc., priority 2017, dated 2021).

Experiments:
MERTK = molecular target: T1, MERTK (Homo sapiens, UniProt Q12866); experiment: TR-FRET kinase activity assay, MERTK; assay type: biochemical; details: for IC50: TR-FRET activity assay, ATP at Km, 60 minutes, read-out: Mer IC50
T1 sequence (Q12866 21-999): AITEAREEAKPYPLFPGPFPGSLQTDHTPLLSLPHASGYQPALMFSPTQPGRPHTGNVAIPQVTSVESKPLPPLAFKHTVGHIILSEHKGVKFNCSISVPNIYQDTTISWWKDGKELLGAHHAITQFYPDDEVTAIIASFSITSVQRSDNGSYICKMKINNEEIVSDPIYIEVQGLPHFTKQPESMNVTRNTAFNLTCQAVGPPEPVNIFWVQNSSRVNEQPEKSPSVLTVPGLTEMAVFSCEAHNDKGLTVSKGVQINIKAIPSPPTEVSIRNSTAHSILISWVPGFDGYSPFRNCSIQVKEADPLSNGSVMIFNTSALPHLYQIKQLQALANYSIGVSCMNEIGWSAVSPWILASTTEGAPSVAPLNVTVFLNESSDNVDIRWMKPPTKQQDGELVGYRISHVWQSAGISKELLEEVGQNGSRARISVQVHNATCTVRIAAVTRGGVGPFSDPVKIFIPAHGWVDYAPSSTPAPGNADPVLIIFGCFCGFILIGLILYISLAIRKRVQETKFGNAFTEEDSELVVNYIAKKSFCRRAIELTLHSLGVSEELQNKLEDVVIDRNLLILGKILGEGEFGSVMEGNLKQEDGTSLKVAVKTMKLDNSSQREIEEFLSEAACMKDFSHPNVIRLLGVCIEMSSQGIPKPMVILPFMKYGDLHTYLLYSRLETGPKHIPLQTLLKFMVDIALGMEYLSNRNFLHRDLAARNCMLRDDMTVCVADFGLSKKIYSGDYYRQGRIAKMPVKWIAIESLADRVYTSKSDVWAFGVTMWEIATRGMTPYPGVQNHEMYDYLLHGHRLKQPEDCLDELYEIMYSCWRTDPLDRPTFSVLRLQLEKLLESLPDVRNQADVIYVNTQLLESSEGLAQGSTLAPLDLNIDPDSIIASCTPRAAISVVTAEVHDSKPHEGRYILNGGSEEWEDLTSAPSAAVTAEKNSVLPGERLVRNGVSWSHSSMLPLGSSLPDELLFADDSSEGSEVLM
Method in brief: (§1)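 IC50 reflects the drop in TR-FRET between Eu anti-phosphotyrosine antibody and labelled peptide after a 60-minute room-temperature reaction. Buffer was 50 mM HEPES pH 7.5 with 10 mM MgCl2, 1 mM EGTA, 0.01% Brij 35 and 1 mM DTT, with ATP at Km per enzyme and EDTA quench.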

TYRO3 = molecular target: T2, TYRO3 (Homo sapiens, UniProt Q06418); experiment: TR-FRET kinase activity assay, TYRO3; assay type: biochemical; details: ATP at Km, 60 minutes
T2 sequence (Q06418 41-890): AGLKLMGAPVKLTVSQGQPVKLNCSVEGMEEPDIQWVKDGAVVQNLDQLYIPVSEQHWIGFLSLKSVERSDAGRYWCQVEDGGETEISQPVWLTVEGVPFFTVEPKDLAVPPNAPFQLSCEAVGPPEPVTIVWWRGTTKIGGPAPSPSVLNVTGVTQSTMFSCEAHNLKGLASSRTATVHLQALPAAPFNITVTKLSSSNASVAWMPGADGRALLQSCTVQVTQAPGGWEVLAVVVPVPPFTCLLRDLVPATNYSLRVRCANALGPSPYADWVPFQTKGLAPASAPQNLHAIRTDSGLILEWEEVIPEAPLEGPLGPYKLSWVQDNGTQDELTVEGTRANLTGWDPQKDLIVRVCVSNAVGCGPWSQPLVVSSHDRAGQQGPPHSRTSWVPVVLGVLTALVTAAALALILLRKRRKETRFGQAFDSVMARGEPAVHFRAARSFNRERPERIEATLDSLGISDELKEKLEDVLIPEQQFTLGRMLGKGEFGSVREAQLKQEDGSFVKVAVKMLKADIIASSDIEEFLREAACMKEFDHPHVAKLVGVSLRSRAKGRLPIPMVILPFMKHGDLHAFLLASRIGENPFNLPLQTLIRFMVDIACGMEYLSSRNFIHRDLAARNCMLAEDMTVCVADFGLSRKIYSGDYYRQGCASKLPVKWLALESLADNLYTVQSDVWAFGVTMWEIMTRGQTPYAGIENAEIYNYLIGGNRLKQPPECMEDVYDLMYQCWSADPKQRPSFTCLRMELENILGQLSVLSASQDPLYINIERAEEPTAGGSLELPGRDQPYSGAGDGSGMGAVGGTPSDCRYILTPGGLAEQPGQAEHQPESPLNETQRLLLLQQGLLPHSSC
Method in brief: as §1

[1] = ratio calculated as FLT3 IC50/Mer IC50

Row | IC50 (MERTK) | FLT3/Mer ratio (FLT3 IC50/Mer IC50) (MERTK; [1]) | IC50 (TYRO3) | FLT3/Mer ratio (FLT3 IC50/Mer IC50) (MERTK; ratio of Mer to FLT3: FLT3 IC50/Mer IC50) | Compound
1 | ≤ 0.1 µM | +++ (“+++” represents a ratio of >100) | ≤ 0.1 µM |  | COC[C@H](C)Nc1ncc2c(-c3cnn(CC4CCO4)c3)cc([C@H]3CC[C@H](O)CC3)n2n1 (stereo partly drawn) [Compound 439]
2 | ≤ 0.1 µM | +++ (“+++” represents a ratio of >100) | ≤ 0.1 µM |  | C[C@@H](CC(F)(F)F)Nc1ncc2c([C@H]3CC[C@@H](C(=O)N4CCOCC4)CC3)cc([C@H]3CC[C@H](O)CC3)n2n1 [Compound 446]
3 | ≤ 0.1 µM |  | ≤ 0.1 µM | +++ (“+++” represents a ratio of >100) | CC[C@H](C)Nc1ncc2c(C3CCOCC3)cc([C@H]3CC[C@H](O)CC3)n2n1 [Compound 129, (trans)-4-(2-((S)-sec-butylamino)-5-(tetrahydro-2H-pyran-4-yl)pyrrolo[2,1-f][1,2,4]triazin-7-yl)cyclohexanol]
4 | ≤ 0.1 µM | +++ (“+++” represents a ratio of >100) | ≤ 0.1 µM |  | COC[C@H](C)Nc1ncc2c(C3=CCN(C(=O)OC(C)(C)C)CC3)cc([C@H]3CC[C@H](O)CC3)n2n1 [Compound 425]
5 | ≤ 0.1 µM | +++ (“+++” represents a ratio of >100) | ≤ 0.1 µM |  | COC[C@H](C)Nc1ncc2c(-c3cnn(C(C)(C)CN4CCOCC4)c3)cc([C@H]3CC[C@H](O)CC3)n2n1 [Compound 459]
6 | ≤ 0.1 µM | +++ (“+++” represents a ratio of >100) | 0.1 to 1 µM |  | COC[C@H](C)Nc1ncc2c(C#N)cc([C@H]3CC[C@H](O)CC3)n2n1 [Compound 481]
7 | ≤ 0.1 µM | +++ (“+++” represents a ratio of >100) | ≤ 0.1 µM |  | COC[C@H](C)Nc1ncc2c(-c3ccnc(N4CCOCC4=O)c3)cc([C@H]3CC[C@H](O)CC3)n2n1 [Compound 423]
8 | ≤ 0.1 µM | +++ (“+++” represents a ratio of >100) | ≤ 0.1 µM |  | COC[C@H](C)Nc1ncc2c(-c3ccnc(N4CCC5(CC4)COC5)c3)cc([C@H]3CC[C@H](O)CC3)n2n1 [Compound 427]

The remaining lines, values behind:

Row | Compound | IC50 (MERTK) | FLT3/Mer ratio (FLT3 IC50/Mer IC50) (MERTK; [1]) | IC50 (TYRO3) | FLT3/Mer ratio (FLT3 IC50/Mer IC50) (MERTK; ratio of Mer to FLT3: FLT3 IC50/Mer IC50)
9 | COC[C@H](C)Nc1ncc2c(-c3cnn(C4COC4)c3)cc([C@H]3CC[C@](C)(O)CC3)n2n1 (single isomer, unassigned) [Compound 452] | ≤ 0.1 µM | +++ (“+++” represents a ratio of >100) | ≤ 0.1 µM | 
10 | COC[C@H](C)Nc1ncc2c(-c3ccnc(N4CCNCC4)c3)cc([C@H]3CC[C@H](O)CC3)n2n1 [Compound 434] | ≤ 0.1 µM | +++ (“+++” represents a ratio of >100) | ≤ 0.1 µM | 
11 | COC[C@H](C)Nc1ncc2c(C3=C[C@H]4CC[C@@H](C3)N4)cc([C@H]3CC[C@H](O)CC3)n2n1 [Compound 467] | ≤ 0.1 µM | +++ (“+++” represents a ratio of >100) | ≤ 0.1 µM | 
12 | COC[C@H](C)Nc1ncc2c(-c3cnn(C(C)(C)C(=O)N4CCOCC4)c3)cc(C3CCc4[nH]ncc4C3)n2n1 (stereo partly drawn) [Compound 488] | ≤ 0.1 µM | +++ (“+++” represents a ratio of >100) | ≤ 0.1 µM | 
13 | COC[C@H](C)Nc1ncc2c(C3=CCNCC3)cc([C@H]3CC[C@H](O)CC3)n2n1 [Compound 443] | ≤ 0.1 µM | +++ (“+++” represents a ratio of >100) | ≤ 0.1 µM | 
14 | COC[C@H](C)Nc1ncc2c(-c3ccnc(Oc4cccnc4)c3)cc([C@H]3CC[C@H](O)CC3)n2n1 [Compound 490] | ≤ 0.1 µM | +++ (“+++” represents a ratio of >100) | ≤ 0.1 µM | 
15 | COC[C@H](C)Nc1ncc2c(-c3ccnc(N4CCOC5(COC5)C4)c3)cc([C@H]3CC[C@H](O)CC3)n2n1 [Compound 480] | ≤ 0.1 µM | +++ (“+++” represents a ratio of >100) | ≤ 0.1 µM | 
16 | COC[C@H](C)Nc1ncc2c(C3=C[C@@H]4CC[C@H](C3)N4C(C)=O)cc([C@H]3CC[C@H](O)CC3)n2n1 [Compound 462] | ≤ 0.1 µM | +++ (“+++” represents a ratio of >100) | ≤ 0.1 µM | 
17 | COC[C@H](C)Nc1ncc2c(-c3cnn(C[C@@H]4CC(=O)N(C)C4)c3)cc([C@H]3CC[C@H](O)CC3)n2n1 [Compound 473] | ≤ 0.1 µM | +++ (“+++” represents a ratio of >100) | ≤ 0.1 µM | 
18 | COC[C@H](C)Nc1ncc2c(-c3ccnc(N4CC5(COC5)C4)c3)cc([C@H]3CC[C@H](O)CC3)n2n1 [Compound 426] | ≤ 0.1 µM | +++ (“+++” represents a ratio of >100) | ≤ 0.1 µM | 
19 | COC[C@H](C)Nc1ncc2c(-c3cnn(C(C)(C)c4nnc(C)o4)c3)cc([C@H]3CC[C@H](O)CC3)n2n1 [Compound 440] | ≤ 0.1 µM | +++ (“+++” represents a ratio of >100) | ≤ 0.1 µM | 
20 | COC[C@H](C)Nc1ncc2c(-c3conc3C)cc([C@H]3CC[C@H](O)CC3)n2n1 [Compound 508] | ≤ 0.1 µM | +++ (“+++” represents a ratio of >100) | ≤ 0.1 µM | 
21 | C[C@@H](COC(F)F)Nc1ncc2c(-c3cnn(CCC#N)c3)cc([C@H]3CC[C@H](O)CC3)n2n1 [Compound 437] | ≤ 0.1 µM | +++ (“+++” represents a ratio of >100) | ≤ 0.1 µM | 
22 | C[C@@H](CC(F)F)Nc1ncc2c(-c3ccc(S(C)(=O)=O)nc3)cc([C@H]3CC[C@H](O)CC3)n2n1 [Compound 489] | ≤ 0.1 µM | +++ (“+++” represents a ratio of >100) | ≤ 0.1 µM | 
23 | COC[C@H](C)Nc1ncc2c(C3=C[C@H]4CC[C@@H](C3)N4CC(F)(F)F)cc([C@H]3CC[C@H](O)CC3)n2n1 [Compound 492] | ≤ 0.1 µM | +++ (“+++” represents a ratio of >100) | ≤ 0.1 µM | 
